{"source": "paper PMC7261408", "about": "(Molecular pharmaceutics, 2017)", "key": {"TZM-bl cells [1]": {"tested_on": "TZM-bl cells", "assay": "MTT cell proliferation", "settings": "for TI (toxicity index; ratio of cytotoxicity to neutralization IC50 values): MTT assay; for cellular cytotoxicity (in words): MTT cell proliferation assay; for cytotoxic at concentrations above: cellular cytotoxicity assays"}, "[2]": {"tested_on": "YU2 pseudotyped HIV virus", "settings": "combination 2C:Nt, cited from earlier work"}, "HIV-1 BaL26 (R5)": {"tested_on": "HIV-1 BaL26 (R5)", "settings": "read-out: IC50 BaL26 (R5); TZM-bl cells; cited from earlier work"}, "TZM-bl cells [3]": {"tested_on": "TZM-bl cells", "settings": "effects on host cell line TZM-bl; cited from earlier work"}, "[4]": {"assay": "Peptide stability in PBS and cell growth medium with serum", "assay_type": "in vitro ADME", "settings": "PBS and cell growth medium (DMEM) complemented with fetal bovine serum, 37 °C, 5% CO2, 24 h monitoring; LC–MS"}, "HIV-1 HxB2 (X4)": {"tested_on": "HIV-1 HxB2 (X4)", "settings": "read-out: IC50 HxB2 (X4); cited from earlier work"}, "[5]": {"tested_on": "vesicular stomatitis virus", "assay_type": "cell-based"}, "[6]": {"tested_on": "HIV-1 YU2 pseudotyped viral particles", "settings": "read-out: IC50 YU2 (R5); TZM-bl cells; cited from earlier work"}, "HIV-1 NL4–3 (X4)": {"tested_on": "HIV-1 NL4–3 (X4)", "settings": "read-out: IC50 NL4–3 (X4); cited from earlier work"}, "[7]": {"tested_on": "HIV-1 BaL virions (gp120)", "assay": "HIV-1 virion capture assay with gp120-specific mAbs", "assay_type": "binding", "settings": "peptide 50 μM; sCD4–2D-treated HIV-1 BaL; captured p24 Gag by AlphaLISA"}, "[8]": {"tested_on": "amphotropic pseudotyped murine leukemia virus", "assay": "Neutralization of amphotropic pseudotyped murine leukemia virus", "assay_type": "cell-based"}, "[9]": {"tested_on": "HIV-1 YU2 pseudotyped viral particles", "settings": "neutralization assay"}}, "note": "Entries after “also recorded” stand apart in the source; their conditions may differ. Where two headings read alike, the source gives them in different places.", "data": [{"substance": "Ac-CSSHFPFSQFQFWK-NH2 [16-5]", "values": [{"measurement": "TI (toxicity index; ratio of cytotoxicity to neutralization IC50 values)", "setting": "TZM-bl cells [1]", "value": ">50", "unit": "µM"}, {"measurement": "cellular cytotoxicity (in words)", "setting": "TZM-bl cells [1]", "value": "cytotoxic"}]}, {"substance": "Ac-CSSHFPFSQVQFWK-NH2 [16-6]", "values": [{"measurement": "TI (toxicity index; ratio of cytotoxicity to neutralization IC50 values)", "setting": "TZM-bl cells [1]", "value": ">5", "unit": "µM"}, {"measurement": "cellular cytotoxicity (in words)", "setting": "TZM-bl cells [1]", "value": "cytotoxic"}]}, {"substance": "Ac-CSSHFPFSQYQFWK-NH2 [16-2]", "values": [{"measurement": "TI (toxicity index; ratio of cytotoxicity to neutralization IC50 values)", "setting": "TZM-bl cells [1]", "value": ">63 to 250", "unit": "µM"}, {"measurement": "cytotoxic at concentrations above", "setting": "TZM-bl cells [1]", "value": "above 65 μM"}]}, {"substance": "Ac-CSSHFPWSQVQFWK-NH2 [16-7]", "values": [{"measurement": "TI (toxicity index; ratio of cytotoxicity to neutralization IC50 values)", "setting": "TZM-bl cells [1]", "value": ">75", "unit": "µM"}, {"measurement": "cellular cytotoxicity (in words)", "setting": "TZM-bl cells [1]", "value": "cytotoxic"}]}, {"substance": "Ac-CSSHFPYSQFQFWK-NH2 [16-4]", "values": [{"measurement": "TI (toxicity index; ratio of cytotoxicity to neutralization IC50 values)", "setting": "TZM-bl cells [1]", "value": ">100", "unit": "µM"}, {"measurement": "cellular cytotoxicity (in words)", "setting": "TZM-bl cells [1]", "value": "cytotoxic"}]}, {"substance": "Ac-CSSHFPYSQYQFWK-NH2 [2C, reference compound]", "values": [{"measurement": "dose reduction index (DRI)", "setting": "[2]; ratio 1:1", "value": "2.1 ± 0.4"}, {"measurement": "dose reduction index (DRI)", "setting": "[2]; ratio 1:2", "value": "2.6 ± 0.5"}, {"measurement": "dose reduction index (DRI)", "setting": "[2]; ratio 1:5", "value": "4.9 ± 1.0"}, {"measurement": "IC50", "setting": "HIV-1 BaL26 (R5)", "value": "65 ± 3", "unit": "µM"}, {"measurement": "LC50", "setting": "TZM-bl cells [3]", "value": 190, "unit": "µM"}, {"measurement": "glutathione (GST) adducts detected starting around", "setting": "[4]", "value": "around 30 min"}, {"measurement": "IC50", "setting": "HIV-1 HxB2 (X4)", "value": 54, "unit": "µM"}, {"measurement": "activity toward vesicular stomatitis virus (in words)", "setting": "[5]", "value": "inactive"}, {"measurement": "IC50", "setting": "[6]", "value": "28 ± 7", "unit": "µM"}, {"measurement": "IC50", "setting": "HIV-1 NL4–3 (X4)", "value": "53 ± 2", "unit": "µM"}, {"measurement": "inhibition of virion capture by mAb 19b", "setting": "[7]", "value": "effectively blocked virus capture"}, {"measurement": "inhibition of virion capture by mAb 268-D", "setting": "[7]", "value": "effectively blocked virus capture"}, {"measurement": "inhibition of virion capture by mAb 48d", "setting": "[7]", "value": "effectively blocked virus capture; also recorded: to a lesser extent"}, {"measurement": "inhibition of virion capture by mAb B4e8 (V3 tip)", "setting": "[7]", "value": "neither 2C nor 40-2 blocked capture; also recorded: neither inhibited virion capture"}, {"measurement": "inhibition of virion capture by mAb D19 (V3 tip)", "setting": "[7]", "value": "neither 2C nor 40-2 blocked capture; also recorded: neither inhibited virion capture"}, {"measurement": "activity toward amphotropic pseudotyped murine leukemia virus (in words)", "setting": "[8]", "value": "inactive"}]}, {"substance": "Ac-CSSYFPFSQYQFWK-NH2 [18-2]", "values": [{"measurement": "TI (toxicity index; ratio of cytotoxicity to neutralization IC50 values)", "setting": "TZM-bl cells [1]", "value": ">63 to 125", "unit": "µM"}, {"measurement": "cytotoxic at concentrations above", "setting": "TZM-bl cells [1]", "value": "above 65 μM"}]}, {"substance": "Ac-CSSYFPFSQYQWWK-NH2 [20-2]", "values": [{"measurement": "glutathione (GST) adducts detected starting around", "setting": "[4]", "value": "around 30 min"}, {"measurement": "TI (toxicity index; ratio of cytotoxicity to neutralization IC50 values)", "setting": "TZM-bl cells [1]", "value": ">250", "unit": "µM"}, {"measurement": "cellular cytotoxicity (in words)", "setting": "TZM-bl cells [1]", "value": "nontoxic at relevant concentrations"}]}, {"substance": "Ac-CSSYFPWSQYQWWK-NH2 [30-2]", "values": [{"measurement": "TI (toxicity index; ratio of cytotoxicity to neutralization IC50 values)", "setting": "TZM-bl cells [1]", "value": ">500", "unit": "µM"}, {"measurement": "cellular cytotoxicity (in words)", "setting": "TZM-bl cells [1]", "value": "nontoxic at relevant concentrations"}, {"measurement": "LC50", "setting": "TZM-bl cells [1]; effects on host cell line TZM-bl, standard deviations averaged 20%, Non-toxic = nontoxic at 500 μM", "value": "Non-toxic^f"}]}, {"substance": "Ac-CSSYYPFSQYQWWK-NH2 [20-5]", "values": [{"measurement": "cellular cytotoxicity (in words)", "setting": "TZM-bl cells [1]", "value": "nontoxic at relevant concentrations"}]}, {"substance": "Ac-SSHFPFSQRQFWK-NH2 [14-1]", "values": [{"measurement": "TI (toxicity index; ratio of cytotoxicity to neutralization IC50 values)", "setting": "TZM-bl cells [1]", "value": ">500 to 1000", "unit": "µM"}]}, {"substance": "Ac-SSHFPFSQVQFWK-NH2 [14-5]", "values": [{"measurement": "activity against R5-tropic strain YU2 (in words)", "setting": "[9]", "value": "low activity"}, {"measurement": "TI (toxicity index; ratio of cytotoxicity to neutralization IC50 values)", "setting": "TZM-bl cells [1]", "value": ">500", "unit": "µM"}]}, {"substance": "Ac-SSHFPFSQYQFWK-NH2 [12-2]", "values": [{"measurement": "activity against R5-tropic strain YU2 (in words)", "setting": "[9]", "value": "modest gains in potency"}, {"measurement": "TI (toxicity index; ratio of cytotoxicity to neutralization IC50 values)", "setting": "TZM-bl cells [1]", "value": ">500", "unit": "µM"}]}, {"substance": "Ac-SSHFPVSQYQFWK-NH2 [12-3]", "values": [{"measurement": "activity against R5-tropic strain YU2 (in words)", "setting": "[9]", "value": "modest gains in potency"}, {"measurement": "TI (toxicity index; ratio of cytotoxicity to neutralization IC50 values)", "setting": "TZM-bl cells [1]", "value": ">5", "unit": "µM"}, {"measurement": "cellular cytotoxicity (in words)", "setting": "TZM-bl cells [1]", "value": "cytotoxic"}]}, {"substance": "Ac-SSHFPWSQRQFWK-NH2 [14-2]", "values": [{"measurement": "TI (toxicity index; ratio of cytotoxicity to neutralization IC50 values)", "setting": "TZM-bl cells [1]", "value": ">500 to 1000", "unit": "µM"}]}, {"substance": "Ac-SSHFPWSQVQFWK-NH2 [14-6]", "values": [{"measurement": "activity against R5-tropic strain YU2 (in words)", "setting": "[9]", "value": "low activity"}, {"measurement": "TI (toxicity index; ratio of cytotoxicity to neutralization IC50 values)", "setting": "TZM-bl cells [1]", "value": ">200", "unit": "µM"}]}, {"substance": "Ac-SSHFPWSQYQFWK-NH2 [12-4]", "values": [{"measurement": "activity against R5-tropic strain YU2 (in words)", "setting": "[9]", "value": "modest gains in potency"}, {"measurement": "TI (toxicity index; ratio of cytotoxicity to neutralization IC50 values)", "setting": "TZM-bl cells [1]", "value": ">500", "unit": "µM"}]}, {"substance": "Ac-SSHFPYSQYQFWK-NH2 [12-1]", "values": [{"measurement": "TI (toxicity index; ratio of cytotoxicity to neutralization IC50 values)", "setting": "TZM-bl cells [1]", "value": ">500 to 1000", "unit": "µM"}]}, {"substance": "Ac-YSSYFPFSQYQWWK-NH2 [40-2]", "values": [{"measurement": "glutathione (GST) adduct formation (in words)", "setting": "[4]", "value": "never detected GST adducts"}, {"measurement": "TI (toxicity index; ratio of cytotoxicity to neutralization IC50 values)", "setting": "TZM-bl cells [1]", "value": ">250", "unit": "µM"}, {"measurement": "cellular cytotoxicity (in words)", "setting": "TZM-bl cells [1]", "value": "nontoxic at relevant concentrations"}, {"measurement": "inhibition of virion capture by mAb 19b", "setting": "[7]", "value": "effectively blocked virus capture"}, {"measurement": "inhibition of virion capture by mAb 268-D", "setting": "[7]", "value": "effectively blocked virus capture"}, {"measurement": "inhibition of virion capture by mAb 48d", "setting": "[7]", "value": "effectively blocked virus capture; also recorded: to a lesser extent"}, {"measurement": "inhibition of virion capture by mAb B4e8 (V3 tip)", "setting": "[7]", "value": "neither 2C nor 40-2 blocked capture; also recorded: neither inhibited virion capture"}, {"measurement": "inhibition of virion capture by mAb D19 (V3 tip)", "setting": "[7]", "value": "neither 2C nor 40-2 blocked capture; also recorded: neither inhibited virion capture"}]}]}
